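Tested at 5 concentrations; 48 h exposure; 96-well plates; endpoints linearly interpolated, else capped at highest concentration. The concentration for 50% growth inhibition is given as GI50.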 Activity calls are given as the source filed them. Cut-off read from the data, not from the text of the source: active = GI50 up to about 1.1 µM and inactive = higher.
Columns and labels:
Test in all cases: DTP human tumour cell line panel, 48 h
HT-29 = test system: HT-29
CAKI-1 = test system: CAKI-1
LOX IMVI = test system: LOX IMVI
HOP-62 = test system: HOP-62
NCI/ADR-RES = test system: NCI/ADR-RES
K562 = test system: K562
COLO 205 = test system: COLO 205
OVCAR-8 = test system: OVCAR-8
SN12C = test system: SN12C
M14 = test system: M14
SK-MEL-5 = test system: SK-MEL-5
TK-10 = test system: TK-10
SF-268 = test system: SF-268
SF-539 = test system: SF-539
UACC-62 = test system: UACC-62
HCC 2998 = test system: HCC 2998
SK-MEL-28 = test system: SK-MEL-28
RPMI-8226 = test system: RPMI-8226
SR = test system: SR
OVCAR-5 = test system: OVCAR-5
DU-145 = test system: DU-145
T47D = test system: T47D
SK-OV-3 = test system: SK-OV-3
OVCAR-3 = test system: OVCAR-3
A549 = test system: A549
MCF7 = test system: MCF7
U-251 = test system: U-251
EKVX = test system: EKVX
CCRF-CEM = test system: CCRF-CEM
RXF 393 = test system: RXF 393
KM12 = test system: KM12
SNB-75 = test system: SNB-75
NCI-H460 = test system: NCI-H460
MDA-N = test system: MDA-N
MOLT-4 = test system: MOLT-4
OVCAR-4 = test system: OVCAR-4
HCT-15 = test system: HCT-15
UACC-257 = test system: UACC-257
SW-620 = test system: SW-620
786-0 = test system: 786-0
IGROV-1 = test system: IGROV-1
MDA-MB-435 = test system: MDA-MB-435
NCI-H522 = test system: NCI-H522
NCI-H23 = test system: NCI-H23
BT-549 = test system: BT-549
Hs-578T = test system: Hs-578T
HOP-92 = test system: HOP-92
HL-60 = test system: HL-60
ACHN = test system: ACHN
SF-295 = test system: SF-295
SK-MEL-2 = test system: SK-MEL-2
PC-3 = test system: PC-3
UO-31 = test system: UO-31
Malme-3M = test system: Malme-3M
MDA-MB-231 = test system: MDA-MB-231
HCT-116 = test system: HCT-116
SNB-19 = test system: SNB-19
NCI-H226 = test system: NCI-H226
A498 = test system: A498

Measured: GI50

COC(=O)[C@H](C)[C@@H]1CC[C@](C)(CCC2=C(C)CCCC2(C)C)OO1
inactive: HT-29 > 25 µM | CAKI-1 > 25 µM | LOX IMVI 8.02 µM | HOP-62 > 25 µM | NCI/ADR-RES > 25 µM | K562 14.3 µM | COLO 205 > 25 µM | OVCAR-8 > 25 µM | SN12C > 25 µM | M14 > 25 µM | SK-MEL-5 > 25 µM | TK-10 > 25 µM | SF-268 > 25 µM | SF-539 > 25 µM | UACC-62 > 25 µM | HCC 2998 > 25 µM | SK-MEL-28 > 25 µM | RPMI-8226 > 25 µM | SR > 25 µM | OVCAR-5 > 25 µM | DU-145 > 25 µM | T47D > 25 µM | SK-OV-3 > 25 µM | OVCAR-3 > 25 µM | A549 > 25 µM | MCF7 > 25 µM | U-251 > 25 µM | EKVX > 25 µM | CCRF-CEM 19.5 µM | RXF 393 > 25 µM | KM12 > 25 µM | SNB-75 > 25 µM | NCI-H460 > 25 µM | MDA-N > 25 µM | MOLT-4 > 25 µM | OVCAR-4 > 25 µM | UACC-257 > 25 µM | SW-620 > 25 µM | 786-0 > 25 µM | IGROV-1 > 25 µM | MDA-MB-435 > 25 µM | NCI-H522 16.1 µM | NCI-H23 > 25 µM | BT-549 > 25 µM | Hs-578T > 25 µM | HOP-92 > 25 µM | HL-60 12 µM | ACHN > 25 µM | SF-295 > 25 µM | SK-MEL-2 > 25 µM | PC-3 > 25 µM | UO-31 23.7 µM | Malme-3M > 25 µM | MDA-MB-231 > 25 µM | HCT-116 > 25 µM | SNB-19 > 25 µM
> 25 µM: HCT-15

COc1cc(S(=O)(=O)Nc2ccc(-c3csc(/N=C\c4cccs4)n3)cc2)ccc1Cl
> 100 µM: HCT-15
inactive: HT-29 57.1 µM | CAKI-1 > 100 µM | LOX IMVI 36.2 µM | HOP-62 67 µM | NCI/ADR-RES > 100 µM | K562 42.9 µM | NCI-H226 57.4 µM | COLO 205 32.5 µM | OVCAR-8 87.5 µM | SN12C 89.5 µM | M14 61.8 µM | SK-MEL-5 42.3 µM | TK-10 49.9 µM | SF-268 33.7 µM | SF-539 39.7 µM | UACC-62 23.3 µM | HCC 2998 29.4 µM | SK-MEL-28 35.9 µM | RPMI-8226 29 µM | SR 15.7 µM | OVCAR-5 > 100 µM | DU-145 29.4 µM | T47D 19.2 µM | SK-OV-3 > 100 µM | OVCAR-3 54.6 µM | A549 78.7 µM | MCF7 16.5 µM | EKVX 28.1 µM | CCRF-CEM 19.8 µM | SNB-75 30.3 µM | NCI-H460 53 µM | MDA-N 34.4 µM | OVCAR-4 > 100 µM | UACC-257 51.8 µM | SW-620 34.3 µM | 786-0 59.3 µM | A498 31.8 µM | IGROV-1 69.7 µM | MDA-MB-435 29.3 µM | NCI-H522 32.4 µM | NCI-H23 53.1 µM | BT-549 31.1 µM | Hs-578T 68.2 µM | HOP-92 > 100 µM | ACHN > 100 µM | SF-295 > 100 µM | SK-MEL-2 96.6 µM | PC-3 > 100 µM | UO-31 45.5 µM | Malme-3M 78 µM | MDA-MB-231 87.7 µM | HCT-116 37.4 µM | SNB-19 32.6 µM

CCN(CC)CCCn1c(=O)c2cccnc2n2c3c(=O)n(C)c(=O)n(C)c3nc12
inactive: HT-29 > 100 µM | CAKI-1 > 100 µM | LOX IMVI > 100 µM | HOP-62 > 100 µM | NCI/ADR-RES > 100 µM | K562 > 100 µM | NCI-H226 > 100 µM | COLO 205 > 100 µM | OVCAR-8 > 100 µM | SN12C > 100 µM | M14 > 100 µM | SK-MEL-5 > 100 µM | TK-10 > 100 µM | SF-268 > 100 µM | SF-539 > 100 µM | UACC-62 > 100 µM | HCC 2998 > 100 µM | SK-MEL-28 > 100 µM | RPMI-8226 > 100 µM | SR > 100 µM | OVCAR-5 > 100 µM | DU-145 > 100 µM | T47D > 100 µM | SK-OV-3 > 100 µM | OVCAR-3 > 100 µM | A549 > 100 µM | MCF7 > 100 µM | U-251 > 100 µM | EKVX > 100 µM | CCRF-CEM > 100 µM | RXF 393 > 100 µM | KM12 > 100 µM | SNB-75 > 100 µM | NCI-H460 84.7 µM | MDA-N > 100 µM | MOLT-4 > 100 µM | OVCAR-4 > 100 µM | UACC-257 > 100 µM | SW-620 > 100 µM | 786-0 > 100 µM | IGROV-1 > 100 µM | MDA-MB-435 > 100 µM | NCI-H522 > 100 µM | NCI-H23 > 100 µM | BT-549 > 100 µM | Hs-578T > 100 µM | HOP-92 > 100 µM | HL-60 > 100 µM | ACHN > 100 µM | SF-295 > 100 µM | SK-MEL-2 > 100 µM | PC-3 > 100 µM | UO-31 > 100 µM | Malme-3M > 100 µM | MDA-MB-231 > 100 µM | HCT-116 > 100 µM | SNB-19 > 100 µM
> 100 µM: HCT-15

O=C(CCCCCCCCC(=O)N1C(=O)CC(=O)N(c2cccc(Cl)c2)C1=S)N1C(=O)CC(=O)N(c2cccc(Cl)c2)C1=S
inactive: HT-29 36.9 µM | CAKI-1 20.5 µM | LOX IMVI 47.1 µM | HOP-62 43.2 µM | NCI/ADR-RES 27.2 µM | COLO 205 37.3 µM | OVCAR-8 34.9 µM | SN12C 40.2 µM | M14 38.9 µM | SK-MEL-5 28.7 µM | TK-10 56.9 µM | SF-268 57.4 µM | UACC-62 21.9 µM | HCC 2998 94.4 µM | RPMI-8226 27.2 µM | SR 26.1 µM | OVCAR-5 56.6 µM | DU-145 89.7 µM | T47D 37 µM | SK-OV-3 42.6 µM | OVCAR-3 25.2 µM | A549 32.5 µM | MCF7 34.3 µM | U-251 35.6 µM | EKVX 38.3 µM | CCRF-CEM 32.7 µM | RXF 393 44.9 µM | KM12 40.3 µM | SNB-75 33.3 µM | NCI-H460 45.9 µM | MDA-N 41.2 µM | MOLT-4 20 µM | OVCAR-4 37.7 µM | UACC-257 45 µM | 786-0 45.6 µM | A498 39.9 µM | MDA-MB-435 59.8 µM | NCI-H522 16.3 µM | NCI-H23 39.7 µM | BT-549 44.1 µM | Hs-578T 19.3 µM | HOP-92 20.5 µM | ACHN 46.2 µM | SF-295 28.1 µM | SK-MEL-2 37.7 µM | PC-3 26.6 µM | UO-31 27.5 µM | Malme-3M 66.1 µM | MDA-MB-231 24.6 µM | HCT-116 34.2 µM | SNB-19 33.7 µM
43.5 µM: HCT-15

COC(=O)[C@@]12CN(C)[C@@H](C(C)(C)C)N1C(=O)OC2c1ccccc1 (some centres not stated)
inactive: HT-29 > 100 µM | CAKI-1 > 100 µM | LOX IMVI > 100 µM | HOP-62 > 100 µM | NCI/ADR-RES > 100 µM | K562 > 100 µM | NCI-H226 > 100 µM | COLO 205 > 100 µM | OVCAR-8 > 100 µM | SN12C > 100 µM | M14 > 100 µM | SK-MEL-5 > 100 µM | TK-10 > 100 µM | SF-268 > 100 µM | SF-539 > 100 µM | UACC-62 > 100 µM | HCC 2998 > 100 µM | SK-MEL-28 > 100 µM | RPMI-8226 > 100 µM | SR > 100 µM | OVCAR-5 > 100 µM | DU-145 > 100 µM | T47D > 100 µM | SK-OV-3 > 100 µM | OVCAR-3 > 100 µM | A549 > 100 µM | MCF7 > 100 µM | U-251 > 100 µM | EKVX > 100 µM | CCRF-CEM > 100 µM | RXF 393 > 100 µM | KM12 > 100 µM | SNB-75 > 100 µM | NCI-H460 > 100 µM | MDA-N > 100 µM | MOLT-4 > 100 µM | OVCAR-4 > 100 µM | UACC-257 > 100 µM | SW-620 > 100 µM | 786-0 > 100 µM | IGROV-1 > 100 µM | MDA-MB-435 > 100 µM | NCI-H522 > 100 µM | NCI-H23 > 100 µM | BT-549 > 100 µM | Hs-578T > 100 µM | HOP-92 > 100 µM | HL-60 > 100 µM | ACHN > 100 µM | SF-295 > 100 µM | PC-3 > 100 µM | UO-31 > 100 µM | Malme-3M > 100 µM | MDA-MB-231 > 100 µM | SNB-19 > 100 µM
> 100 µM: HCT-15

Source: ChEMBL document CHEMBL1201862, “PubChem BioAssay data set” (2004)
